Assay results as given in patent US5925730A, “GnRH antagonists” (Ferring BV, priority 1997, dated 1999).
Non-standard residues stand in square brackets, D forms with d. Residues, ends and D or L forms follow the SMILES beside them. *: point of attachment. dPhe(4-NHCONH2) = NC(=O)Nc1ccc(C[C@@H](N)C(=O)O)cc1; Phe(4-NHCONH2) = NC(=O)Nc1ccc(C[C@H](N)C(=O)O)cc1; Dihydroorotyl(S) = O=C1C[C@@H](C(=O)*)NC(=O)N1; dPhe(4-NH2) = Nc1ccc(C[C@@H](N)C(=O)O)cc1; dPhe(4-Cl) = N[C@H](Cc1ccc(Cl)cc1)C(=O)O; Phe(4-NH2) = Nc1ccc(C[C@H](N)C(=O)O)cc1; d2Nal = N[C@H](Cc1ccc2ccccc2c1)C(=O)O; Lys(iPr) = CC(C)NCCCC[C@H](N)C(=O)O; d3Pal = N[C@H](Cc1cccnc1)C(=O)O; X1 = O=C1NC[C@@H](C(=O)*)N1

What was measured:
[1] = water solubility compared with Acyline; assay type: physicochemical
[2] = system: secretion of LH; test: in vivo rat LH suppression test (circulating LH levels in castrated male rats after sc injection); parameters: species or system castrated male Sprague-Dawley rats; settings: 50 micrograms sc
Procedure: The peptide is assayed in vivo to determine its effectiveness to suppress the secretion of LH in rats. Measurement of circulating LH levels in castrated male Sprague-Dawley rats treated subcutaneously with the peptide is carried out as reported in C. Rivier et al. Biol. Reproduc., 1983, 29, 374-378. The peptides are first dissolved at a concentration of 1.0 or 10 mg/ml in bacteriostatic water and then further diluted in 0.04 M phosphate buffer containing 0.1% BSA. Subsequent dilutions are made in phosphate buffer. The peptides are injected sc into 5 rats, and blood samples (300 μl) are collected under metotane anesthesia. Sera (50 μl) are tested for LH levels in duplicate using reagents provided by the National Pituitary and Hormone Distribution Program of the NIDDK.

[3] = examination of injected rats for tolerance and gelling at the point of injection; assay type: in vivo; settings: 50 μg per rat sc

In the case of CC(=O)Nc1ccc(C[C@@H](NC(=O)[C@H](Cc2ccc(NC(=O)[C@@H]3CNC(=O)N3)cc2)NC(=O)[C@H](CO)NC(=O)[C@@H](Cc2cccnc2)NC(=O)[C@@H](Cc2ccc(Cl)cc2)NC(=O)[C@@H](Cc2ccc3ccccc3c2)NC(C)=O)C(=O)N[C@@H](CC(C)C)C(=O)N[C@@H](CCCCNC(C)C)C(=O)N2CCC[C@H]2C(=O)N[C@H](C)C(N)=O)cc1 [Example 3A] (Ac-[d2Nal][dPhe(4-Cl)][d3Pal]S[Phe(4-NH2)](X1)[dPhe(4-NH2)](Ac)L[Lys(iPr)]P[dA]-NH2), the “water solubility compared with Acyline” value [1] is reported as “more water soluble than Acyline”.

In the case of CC(=O)Nc1ccc(C[C@@H](NC(=O)[C@H](Cc2ccc(NC(N)=O)cc2)NC(=O)[C@H](CO)NC(=O)[C@@H](Cc2cccnc2)NC(=O)[C@@H](Cc2ccc(Cl)cc2)NC(=O)[C@@H](Cc2ccc3ccccc3c2)NC(C)=O)C(=O)N[C@@H](CC(C)C)C(=O)N[C@@H](CCCCNC(C)C)C(=O)N2CCC[C@H]2C(=O)N[C@H](C)C(N)=O)cc1 [Example 1Q, Ac-β-D-2Nal-D-4Cpa-D-3Pal-Ser-4Aph(carbamoyl)-D-4Aph(Ac)-Leu-Lys(isopropyl)-Pro-D-Ala-NH2] (Ac-[d2Nal][dPhe(4-Cl)][d3Pal]S[Phe(4-NHCONH2)][dPhe(4-NH2)](Ac)L[Lys(iPr)]P[dA]-NH2), the “effectiveness in suppression of LH compared with Acyline, first two days” value ([2]; days 1-2) is reported as “equal to about values of Acyline”, the “suppression of LH compared with Acyline at days 3 and 4 (72 and 96 hours; after the first 2 days)” value ([2]; days 3-4) is reported as “not as effective as Acyline” and the “water solubility compared with Acyline” value [1] is reported as “more water soluble than Acyline”.

For CC(=O)N[C@H](Cc1ccc2ccccc2c1)C(=O)N[C@H](Cc1ccc(Cl)cc1)C(=O)N[C@H](Cc1cccnc1)C(=O)N[C@@H](CO)C(=O)N[C@@H](Cc1ccc(NC(=O)[C@@H]2CC(=O)NC(=O)N2)cc1)C(=O)N[C@H](Cc1ccc(NC(N)=O)cc1)C(=O)N[C@@H](CC(C)C)C(=O)N[C@@H](CCCCNC(C)C)C(=O)N1CCC[C@H]1C(=O)N[C@H](C)C(N)=O [Example 1, Ac-D-2Nal-(4Cl)D-Phe-D-3Pal-Ser-4Aph(hydroorotyl)-D-4Aph(carbamoyl)-Leu-Lys(isopropyl)-Pro-D-Ala-NH2] (Ac-[d2Nal][dPhe(4-Cl)][d3Pal]S[Phe(4-NH2)](Dihydroorotyl(S))[dPhe(4-NHCONH2)]L[Lys(iPr)]P[dA]-NH2), the “gelling at the point of injection” value [3] was “no significant gelling” and the “tolerance of the peptide in injected rats” value [3] was “very well tolerated”.

With CC(=O)Nc1ccc(C[C@H](NC(=O)[C@H](CO)NC(=O)[C@@H](Cc2cccnc2)NC(=O)[C@@H](Cc2ccc(Cl)cc2)NC(=O)[C@@H](Cc2ccc3ccccc3c2)NC(C)=O)C(=O)N[C@H](Cc2ccc(NC(N)=O)cc2)C(=O)N[C@@H](CC(C)C)C(=O)N[C@@H](CCCCNC(C)C)C(=O)N2CCC[C@H]2C(=O)N[C@H](C)C(N)=O)cc1 [Example 1P, Ac-β-D-2Nal-D-4Cpa-D-3Pal-Ser-4Aph(Ac)-D-4Aph(carbamoyl)-Leu-Lys(isopropyl)-Pro-D-Ala-NH2] (Ac-[d2Nal][dPhe(4-Cl)][d3Pal]S[Phe(4-NH2)](Ac)[dPhe(4-NHCONH2)]L[Lys(iPr)]P[dA]-NH2) the “duration of bioactivity for the suppression of LH (rating in words)” value [2] was “long duration”, the “suppression of LH compared with Acyline at 96 hours / 4 days (after day 3)” value ([2]; 96 hours) was “slightly superior to Acyline” and the “effectiveness in suppression of LH compared with Acyline, day 1 through day 3” value ([2]; days 1-3) was “substantially the same as Acyline”. For the same compound, the “water solubility compared with Acyline” value [1] was “more water soluble than Acyline”.
